{"source": "patent US20050004044A1", "about": "“Use of orsaponin [3beta, 16beta, 17 alpha-trihydroxycholost-5-en-22-one 16-0-(2-0-4-methoxybenzoyl-beta-D-xylopyranosyl)-(1->3)-(2-0-acetyl-alpha-L-arabinopyranoside)] or OSW-1 and its derivatives for cancer therapeutics” (priority 2003, published 2005)", "key": {"[1]": {"tested_on": "ovarian cancer SKOV3 cells", "assay": "MTT cell growth inhibition, SKOV3", "format": "cell-based", "conditions": "Homo sapiens, SK-OV-3, SKOV3, 72 h", "description": "FIG. 5. Effect of Orsaponin (OSW-1) on cell growth in human ovarian cancer cells (SKOV3). Human ovarian cancer SKOV3 cells were treated with the indicated concentrations of OSW-1 for 72 h. Cell growth inhibition was measured by the MTT assay. The IC50 value is approximately 0.2 nM under the experimental conditions.\n1. MTT Assays. For these assays either cancer cell lines were used. Alternatively, mononuclear cells from peripheral blood samples of CLL patients or normal donors were separated by Ficoll Hipaque fractionation and resuspended in DMEM complete medium. […] After the indicated number of days (usually 3 days or 72 hours) of exposure to OSW-1, cell survival was assessed by the addition of the MTT dye to the wells. […] Survival of cells under orsaponin treatment was evaluated as a percentage of control cell growth. […]\nOSW-1 Inhibits Growth of Ovarian Cancer Cells. […] Human ovarian cancer SKOV3 cells were treated with 0-10 nM OSW-1 for 72 h and cell growth inhibition was measured by the MTT assay.\nThe effect of 17-deoxyorsaponin in human ovarian cancer cells was determined. […] Cell growth inhibition was measured by MTT assay (FIG. 17). […] ML-1 leukemia cells were incubated with various concentrations of 17-deoxyorsaponin for 72 h and cell growth inhibition was measured using the MTT assay (FIG. 18)."}, "[2]": {"tested_on": "HCT116 p53+/+ colon cancer cells", "assay": "Colony formation assay, HCT116 p53+/+", "format": "cell-based, human", "description": "FIG. 6. Effect of OSW-1 on cell survival in human colon carcinoma cells. Human colon cancer cells with wild-type p53 (HCT116 p53+/+) and p53-null (HCT116 p53−/−) were treated with the indicated concentrations of OSW-1, and cell survival was measured by colony formation assay.\nOSW-1 Inhibits Growth of Human Colon Cancer Cells. […] The HCT116 colon cancer cells with wild-type p53 (p53+/+) and p53-null (p53−/−) were treated with the various concentrations of orsaponin (OSW-1), and cell survival was measured by colony formation assay."}, "HL-60 cells": {"tested_on": "HL-60 cells", "assay": "Mitochondrial transmembrane potential (rhodamine-123), HL-60", "format": "cell-based, human", "conditions": "HL-60, 0.5 nM", "description": "FIG. 10. Effect of Orsaponin (OSW-1) on Mitochondrial transmembrane potential HL-60 cells. The parental HL-60 line and its mutant with mitochondrial respiration defect, clone C6F, were incubated with 0.5 nM OSW-1 for the indicated times. Change in mitochondrial transmembrane potential was measured by cytometry analysis, using rhodamine-123 as a potential-sensitive fluorescent dye.\n3. Analysis of the Mitochondrial Transmembrane Potential. To evaluate the role of mitochondrial respiration in the cytotoxicity of OSW-1, changes in the potential of mitochondrial membrane were analyzed. Following the treatment of cells with OSW-1 for different time periods, cells were incubated with rhodamine-123 which is a potential-sensitive dye. Cytometric analysis was used to record changes in mitochondrial potential. […]\nThe effect of OSW-1 on mitochondrial transmembrane potential in HL-60 cells and C6F cells was also analyzed by incubating the cells with 0.5 nM OSW-1 for the 4, 16 and 24 hours. Change in mitochondrial transmembrane potential was measured by flow cytometry analysis, using rhodamine-123 as a potential-sensitive fluorescent dye and are depicted in FIG. 10."}, "[3]": {"assay": "5-day intravenous toxicity study in mice", "format": "in vivo, ICR mice", "conditions": "for Early Deaths: 15 dosed; for NOAEL at 5 days: ICR", "description": "To assess the toxicity of orsaponin of the present invention, a 5-day intravenous study with Orsaponin in mice was conducted. […] Five mice from each group were scheduled to be sacrificed 3, 14, and 42 days after the last dose was administered.\nTissues (liver with gall bladder, kidneys, heart with aorta, lungs, spleen, skeletal muscle, brain, pituitary gland, eyes, pancreas, stomach, duodenum, jejunum, ileum, cecum, colon, mesenteric lymph node, salivary gland, mandibular lymph node, thymus, adrenal glands, larynx/pharynx/tongue, thyroid gland, parathyroid, trachea, esophagus, skin, mammary gland (females only), prostate, seminal vesicles, urinary bladder, testes, epididymides, ovary, uterus, cervix, femur/knee joint, sternum, bone marrow, and gross lesions) were processed for microscopic evaluation.\nIndividual animal organ weight was also measured. Calculation of percent of control using the relative weight of the individual organs per 100 grams of the terminal body weight (TBW) is included below in Tables 8 and 9. A change of greater than 20% difference was considered toxicologically important, and/or a clear dose response relationship."}, "[4]": {"conditions": "male mice, early deaths day 4, individual animals, listed as Orsaponin"}}, "note": "Several values for one entry are separate records, joined by “and”; a condition that tells them apart may be missing. Equal entries are not always repeated. Where two headings read alike, the source gives them in different places.", "data": [{"compound": "COc1ccc(C(=O)OC2C(OC3C(O)COC(O[C@H]4C[C@H]5[C@@H]6CC=C7C[C@@H](O)CC[C@]7(C)[C@H]6CC[C@]5(C)[C@@]4(O)[C@H](C)C(=O)CCC(C)C)C3OC(C)=O)OCC(O)C2O)cc1", "note": "(stereo partly drawn) [OSW-1, 3β, 16β, 17 α-trihydroxycholost-5-en-22-one 16-O-(2-O-4-methoxybenzoyl-β-D-xylopyranosyl)-(1->3)-(2-O-acetyl-α-L-arabinopyranoside)]", "values": [{"measurement": "IC50", "setting": "[1]", "result": "~0.2", "unit": "nM"}, {"measurement": "cell survival, colony formation", "setting": "[2]", "result": "effective in killing human colon cancer cells regardless of p53 expression status"}, {"measurement": "change in mitochondrial transmembrane potential", "setting": "HL-60 cells; 16-24 h", "result": "substantial loss of mitochondrial transmembrane potential"}, {"measurement": "change in mitochondrial transmembrane potential", "setting": "HL-60 cells; 4 h", "result": "did not cause a significant change in mitochondrial transmembrane potential"}, {"measurement": "Early Deaths", "setting": "[3]; Females, 10 μg/kg/day", "result": 0}, {"measurement": "Early Deaths", "setting": "[3]; Females, 20 μg/kg/day", "result": 0}, {"measurement": "Early Deaths", "setting": "[3]; Females, 30 μg/kg/day", "result": 0}, {"measurement": "Early Deaths", "setting": "[3]; Females, 40 μg/kg/day", "result": 0}, {"measurement": "Spleen Relative Weight", "setting": "[3]; Females, 14-Day, 20 μg/kg/day", "result": "109% of Control"}, {"measurement": "Liver Relative Weight", "setting": "[3]; Females, 14-Day, 40 μg/kg/day", "result": "105% of Control"}, {"measurement": "Kidney Relative Weight", "setting": "[3]; Females, 42-Day, 20 μg/kg/day", "result": "116% of Control"}, {"measurement": "Kidney Relative Weight", "setting": "[3]; Females, 42-Day, 40 μg/kg/day", "result": "105% of Control"}, {"measurement": "Early Deaths", "setting": "[3]; Males, 10 μg/kg/day", "result": 0}, {"measurement": "Early Deaths", "setting": "[3]; Males, 20 μg/kg/day", "result": 7}, {"measurement": "Early Deaths", "setting": "[3]; Males, 40 μg/kg/day", "result": 15}, {"measurement": "Kidney Relative Weight", "setting": "[3]; Males, 3-Day, 10 μg/kg/day", "result": "103% of Control"}, {"measurement": "Kidney Relative Weight", "setting": "[3]; Males, 3-Day, 20 μg/kg/day", "result": "116% of Control"}, {"measurement": "TBW", "setting": "[3]; Males, 14-Day, 10 μg/kg/day", "result": "107% of Control"}, {"measurement": "mortality or morbidity", "setting": "[3]; female mice, 10, 20 or 40 μg/kg/day i.v.", "result": "no mortality or morbidity was observed"}, {"measurement": "NOAEL at 5 days", "setting": "[3]; female, mouse, in vivo, females, read-out: no-observed-adverse-effect level (NOAEL)", "result": 0.04, "unit": "mg/kg/day"}, {"measurement": "no-observed-effect level (NOEL)", "setting": "[3]; females", "result": 40, "unit": "µg/kg/day"}, {"measurement": "NOEL", "setting": "[3]; male mice", "result": "No NOEL"}, {"measurement": "mortality and morbidity", "setting": "[3]; male mice, 20 and 40 μg/kg/day, after the fourth injection", "result": "mortality and morbidity was observed"}, {"measurement": "Hemolysis Sl, Md, Mk", "setting": "[3]; male mice, early deaths day 4, individual animals (IDs 30xx, 40xx), 30 and 40 μg/kg/day groups, listed as Orsaponin", "result": "Md (6×) and Mk and Sl"}, {"measurement": "ALK PHOS", "setting": "[3]; [4]", "result": "1896 IU/L and 1746 IU/L and 2290 IU/L and 3302 IU/L and >4500 IU/L and >1500 IU/L (2×) and 2001 IU/L and >2842 IU/L and 3339 IU/L and 4992 IU/L and 4326 IU/L"}, {"measurement": "ALT", "setting": "[3]; [4]", "result": "1058 IU/L and 486 IU/L and >8800 IU/L (2×) and >4400 IU/L (2×) and 2060 IU/L and >6600 IU/L (2×) and 5642 IU/L and 4950 IU/L and 5596 IU/L"}, {"measurement": "AST", "setting": "[3]; [4]", "result": "1794 IU/L and 1167 IU/L and >8800 IU/L (3×) and 3306 IU/L and >6600 IU/L (2×) and 4341 IU/L and >4400 IU/L and 5106 IU/L and 5864 IU/L"}, {"measurement": "Alb", "setting": "[3]; [4]", "result": "4.2 gm/dl and 3 gm/dl and 3.4 gm/dl and 2.4 gm/dl (2×) and 3.8 gm/dl (2×) and 3.3 gm/dl and 3.9 gm/dl and 2.8 gm/dl and 2.7 gm/dl"}, {"measurement": "CHLORIDE", "setting": "[3]; [4]", "result": "103 mmol/L and 110 mmol/L (3×) and 116 mmol/L and 105 mmol/L and 109 mmol/L and 107 mmol/L"}, {"measurement": "Glob", "setting": "[3]; [4]", "result": "2.3 gm/dl and 1.8 gm/dl (2×) and 6.6 gm/dl and 1.4 gm/dl (2×) and 1.6 gm/dl and 1.5 gm/dl and 2.1 gm/dl and 1.2 gm/dl and 1 gm/dl"}, {"measurement": "T. PROTEIN", "setting": "[3]; [4]", "result": "6.5 gm/dl and 4.8 gm/dl (2×) and 10 gm/dl and 3.8 gm/dl and 5.4 gm/dl and 5.6 gm/dl and 6 gm/dl (2×) and 4 gm/dl and 4.1 gm/dl and 3.4 gm/dl"}, {"measurement": "NOAEL at 5 days", "setting": "[3]; male, mouse, in vivo, males, 5 daily doses, based on pathology, read-out: NOAEL", "result": 0.01, "unit": "mg/kg/day"}, {"measurement": "compound-related findings", "setting": "[3]; mouse, in vivo", "result": "No Orsaponin-related findings were observed"}, {"measurement": "interpretation of AST, ALT and total bilirubin", "setting": "[3]; mouse, in vivo", "result": "severe liver disease"}, {"measurement": "reversibility of hepatocellular lesion", "setting": "[3]; mouse, in vivo", "result": "completely reversible"}]}]}
